Data taken from patent US6974681B1, “Cell culture performance with vanadate” (Immunex Corporation, priority 2002, dated 2005).
Where “and” joins values, the source holds several entries; their conditions need not be identical. Identical values can stand only once.

How the values were obtained:
[1] = test system: CHO cells expressing huTNFR-Fc; test: Cell concentration and viability (hemacytometer, trypan blue dye exclusion) of cultures expressing huTNFR-Fc with inducing agents; assay type: cell-based, Chinese Hamster; details: day 5, 31° C.
Protocol: (§1) A second experiment was performed to test the effects of sodium orthovanadate on specific production of the recombinant polypeptide huTNFR-Fc, expressed from cells when compared to the same cells grown without vanadate. Flasks were inoculated at 2×10^6 cells/ml and were either grown without additional compounds or with sodium butyrate at 0.5 mM or sodium butyrate with sodium orthovanadate at 20 μM. Flasks were set up in an incubator at 31° C. Measurements for cell concentration and viability were taken using a hemacytometer and the trypan blue dye exclusion method and the results are shown in Table 2. Production of huTNFR-Fc was measured by standard ELISA.

[2] = test system: CHO cells expressing huTNFR-Fc; test: Production of huTNFR-Fc measured by standard ELISA; assay type: cell-based, Chinese Hamster; details: NaButyrate 0.5 mM, culture without inducing agent normalized to 100%
Protocol: as §1

[3] = test system: Chinese Hamster Ovary (CHO) cell line genetically engineered to produce huTNFR:Fc; test: Dose response of vanadate in shake flask cultures (viable cell density, viability); assay type: cell-based; details: day 5, shake flask, serum-free medium
Protocol: In this experiment, the effect of adding various concentrations of vanadate was tested in mammalian cell shake flask cultures. A Chinese Hamster Ovary (CHO) cell line that had been genetically engineered to produce huTNFR:Fc (a soluble form of the human tumor necrosis factor alpha receptor extracellular domain fused to an Fc polypeptide from an immunogolublin see in U.S. Pat. No. 5,945,397) was grown in serum-free medium. A dose response analysis was performed to determine an optimal dose for vanadate.

Recombinant CHO Cells = test: Effect of vanadate and reduced IGF-1 on recombinant CHO cells; assay type: cell-based, Chinese Hamster; set-up: cells/ml: scale not given here
Protocol: (§2) Vanadate can also reduce the requirement for growth factors to maintain recombinant cell viability. […] At 5 ng/L with vanadate, IGF-1 is sufficient to maintain the same viability of recombinant polypeptide producing cells as 100 μg/L IGF-1 in the absence of vanadate.

[4] = test system: recombinant cell culture (expressing huTNFR-Fc); test: Bioreactor culture (balanced feed experiment) with reduced IGF-1 plus vanadate, FIG. 1; assay type: cell-based; details: 25 µg/L IGF-1 with 20 μM sodium orthovanadate compared to 100 µg/L IGF-1 without vanadate
Protocol: FIG. 1. Addition of sodium orthovanadate to a recombinant cell culture (expressing huTNFR-Fc) reduces the requirement for IGF-1 to maintain viability in a balanced feed experiment. […]
as §2
The results from these experiments show how adding vanadate, in this case orthovanadate, can be applied in mammalian cell culture for a number of purposes. Cell viability is increased in cultures having 20 μM orthovanadate compared to cells grown without orthovanadate over a five day period (FIG. 1). In short, adding vanadate, such as orthovanadate, helps to create a more efficient mammalian cell culture process by reducing cell death, reducing the requirement of growth factors in the cell culture and increasing secreted polypeptide production.

[5] = with sodium orthovanadate (+), IGF-1 5 ng/L
[6] = with sodium orthovanadate (+), IGF-1 100 μg/L
[7] = IGF-1 5 ng/L, without sodium orthovanadate (−)
[8] = IGF-1 100 μg/L, without sodium orthovanadate (−)

Compound: CCCC(=O)[O-].[Na+] [NaButyrate, sodium butyrate]
- % Viability ([1]; NaButyrate 0.5 mM): 78%
- VCD, ×10^6 ([1]; NaButyrate 0.5 mM): 5.547 ×10^6 and 5.067 ×10^6
- Specific Productivity [2]: 161% and 153%
- Titer [2]: 140% and 125%

Compound: [Na+].[Na+].[Na+].[O]=[V]([O-])([O-])[O-] [Vanadate, sodium orthovanadate]
- % Viability ([3]; 10 uM vanadate): 80% and 89%
- VCD, ×10^6 ([3]; 10 uM vanadate): 5.102 ×10^6 and 6.796 ×10^6
- % Viability ([3]; 20 uM vanadate): 90%
- VCD, ×10^6 ([3]; 20 uM vanadate): 5.8 ×10^6
- % Viability ([3]; 35 uM vanadate): 87% and 90%
- VCD, ×10^6 ([3]; 35 uM vanadate): 5.142 ×10^6 and 5.184 ×10^6
- % Viability ([3]; 50 uM vanadate): 83% and 81%
- VCD, ×10^6 ([3]; 50 uM vanadate): 4.136 ×10^6 and 3.625 ×10^6
- % Viability ([1]; sodium butyrate 0.5 mM with sodium orthovanadate 20 μM (0.02 mM)): 95%
- % viable (Recombinant CHO Cells; [5]): 73%
- cells/ml (Recombinant CHO Cells; [5]): 4.916 cells/ml
- % viable (Recombinant CHO Cells; [6]): 90%
- cells/ml (Recombinant CHO Cells; [6]): 6.806 cells/ml
- cell viability ([4]; after four days): improved
- cell survival ([4]; after six days): markedly more cell survival

Compound: IGF-1: insulin like growth factor (IGF-1), growth factor added to the medium
- % viable (Recombinant CHO Cells; [7]): 58%
- cells/ml (Recombinant CHO Cells; [7]): 3.936 cells/ml
- % viable (Recombinant CHO Cells; [8]): 74%
- cells/ml (Recombinant CHO Cells; [8]): 5.825 cells/ml
